Source: publication PMC3489029 (Journal of the American Chemical Society, 2012)

Key:
[1] = molecular target: cell wall binding domain of the endolysin PlyL (Bacillus anthracis, UniProt A0A6H3AMF3); experiment: biochemical; design: species or system Bacillus anthracis bacteriophage
[2] = molecular target: cell wall binding domain of the endolysin PlyG (Bacillus phage Gamma, UniProt Q8LTE6); experiment: biochemical; design: species or system Bacillus anthracis bacteriophage
Chain of cell wall binding domain of the endolysin PlyG (Q8LTE6 166-233 limits assumed): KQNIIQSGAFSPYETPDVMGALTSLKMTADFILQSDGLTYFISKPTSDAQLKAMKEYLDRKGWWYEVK

Chain of cell wall binding domain of the endolysin PlyL (A0A6H3AMF3 160-234 limits assumed): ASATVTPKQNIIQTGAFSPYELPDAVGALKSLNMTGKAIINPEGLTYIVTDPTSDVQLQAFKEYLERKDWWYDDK

Row | Compound | Kd [1] | fold reduced affinity compared to tetrasaccharide 3 [1] | Kd [2] | binding to PlyL in words [1]
1 | CC(=O)N[C@@H]1[C@H](O[C@H]2[C@H](O[C@H]3O[C@H](CO)[C@H](O)[C@H](O)[C@H]3O)[C@@H](NC(C)=O)[C@H](OCCCCCN)O[C@@H]2CO)O[C@H](CO)[C@@H](O[C@H]2O[C@H](CO)[C@@H](O[C@@H]3O[C@H](CO)[C@H](O)[C@H](O)[C@H]3O)[C@H](O[C@H]3O[C@H](CO)[C@H](O)[C@H](O)[C@H]3O)[C@H]2NC(C)=O)[C@@H]1O [Compound 1] | 23 ± 2 µM | 10 fold | 23.3 ± 0.5 µM | –
2 | CC(=O)N[C@@H]1[C@H](O[C@H]2[C@H](O)[C@@H](NC(C)=O)[C@H](OCCCCCN)O[C@@H]2CO)O[C@H](CO)[C@@H](O[C@H]2O[C@H](CO)[C@@H](O)[C@H](O)[C@H]2NC(C)=O)[C@@H]1O [Compound 2] | 13.5 µM | – | 8.6 ± 0.4 µM | –
3 | CC(=O)N[C@@H]1[C@H](O[C@H]2[C@H](O)[C@@H](NC(C)=O)[C@H](OCCCCCN)O[C@@H]2CO)O[C@H](CO)[C@@H](O[C@H]2O[C@H](CO)[C@@H](O[C@@H]3O[C@H](CO)[C@H](O)[C@H](O)[C@H]3O)[C@H](O)[C@H]2NC(C)=O)[C@@H]1O [Compound 3] | 1.1 µM | – | 2.1 ± 1.1 µM | exceptional high affinity
4 | CC(=O)N[C@@H]1[C@H](O[C@H]2[C@H](O)[C@@H](NC(C)=O)[C@H](OCCCCCN)O[C@@H]2CO)O[C@H](CO)[C@@H](O[C@H]2O[C@H](CO)[C@@H](O)[C@H](O[C@H]3O[C@H](CO)[C@H](O)[C@H](O)[C@H]3O)[C@H]2NC(C)=O)[C@@H]1O [Compound 4] | 153 ± 10 µM | – | 136 ± 7 µM | complexed poorly with the protein
5 | CC(=O)N[C@@H]1[C@H](O[C@H]2[C@H](O[C@H]3O[C@H](CO)[C@H](O)[C@H](O)[C@H]3O)[C@@H](NC(C)=O)[C@H](OCCCCCN)O[C@@H]2CO)O[C@H](CO)[C@@H](O[C@H]2O[C@H](CO)[C@@H](O)[C@H](O)[C@H]2NC(C)=O)[C@@H]1O [Compound 5] | 6.2 ± 2 µM | – | 4.1 ± 0.5 µM | –
6 | CC(=O)N[C@@H]1[C@H](O[C@H]2[C@H](O)[C@@H](NC(C)=O)[C@H](OCCCCCN)O[C@@H]2CO)O[C@H](CO)[C@@H](O)[C@@H]1O [Compound 6] | 110 ± 9 µM | – | 49 ± 2 µM | –
7 | CC(=O)N[C@@H]1[C@H](O[C@H]2[C@H](O)[C@@H](NC(C)=O)[C@H](OCCCCCN)O[C@@H]2CO)O[C@H](CO)[C@@H](O[C@H]2O[C@H](CO)[C@H](O)[C@H](O)[C@H]2NC(C)=O)[C@@H]1O [Compound 7] | 43 ± 11 µM | – | 19.5 ± 7.5 µM | –
